pEC50: −log10 of the molar value. Where two headings read alike, the source gives them in different places.
Key:
[1] = test system: HIV-1 (IIIB); assay: microbe, parasite or virus in culture; assay type: cell-based; conditions: for pEC50: Human immunodeficiency virus 1, MT4, 120 h, HIV-1 (IIIB) replication in MT-4 cells, 5 days incubation, Cell Titer Glo, read-out: MT4 EC50; for EC50: Human immunodeficiency virus 1, IIIB, MT4, 120 h, read-out: MT4 EC50 (nM)
[2] = in vitro; conditions: human; for CC50 at 5 days: uninfected MT-4 cells

Compound	pEC50 [1]	CC50 at 5 days [2] [µM]	EC50 [1] [nM]	CC50 [2] [µM]
COC1=NO[C@@]2(CC[C@H](C)N3C[C@H]2n2cc(C(=O)NCc4ccc(F)cc4F)c(=O)c(OCc4oc(=O)oc4C)c2C3=O)C1 [Compound 103, (3′S,5S,7′R)—N-(2,4-difluorobenzyl)-3-methoxy-3′-methyl-12′-((5-methyl-2-oxo-1,3-dioxol-4-yl)methoxy)-1′,11′-dioxo-1′,4′,5′,11′-tetrahydro-3′H,4H,7′H-spiro[isoxazole-5,6′-[2,7]methanopyrido[1,2-a][1,4]diazonine]-10′-carboxamide]	8.72	18.9	–	–
CC1=NO[C@@]2(CC[C@H](C)N3C[C@H]2n2cc(C(=O)NCc4ccc(F)cc4F)c(=O)c(OC(=O)N(C)c4ncccc4CN(CCC(F)(F)F)C(=O)OCOP(=O)(O)O)c2C3=O)C1 [Compound 82, (3′S,5S,7′R)-10′-((2,4-difluorobenzyl)carbamoyl)-3,3′-dimethyl-1′,11′-dioxo-1′,4′,5′,11′-tetrahydro-3′H,4H,7′H-spiro[isoxazole-5,6′-[2,7]methanopyrido[1,2-a][1,4]diazonin]-12′-yl methyl(3-(((((phosphonooxy)methoxy)carbonyl)(3,3,3-trifluoropropyl)amino)methyl)pyridin-2-yl)carbamate]	–	–	2.17	8.52
COC1=NO[C@@]2(CC[C@H](C)N3C[C@H]2n2cc(C(=O)NCc4ccc(F)cc4F)c(=O)c(OCOC(=O)N(C)C[C@@H]4CCCN4C(=O)OCOP(=O)(O)O)c2C3=O)C1 [Compound 16, (phosphonooxy)methyl (2S)-2-(((((((3′S,5S,7′R)-10′-((2,4-difluorobenzyl)carbamoyl)-3-methoxy-3′-methyl-1′,11′-dioxo-1′,4′,5′,11′-tetrahydro-3′H,4H,7′H-spiro[isoxazole-5,6′-[2,7]methanopyrido[1,2-a][1,4]diazonin]-12′-yl)oxy)methoxy)carbonyl)(methyl)amino)methyl)pyrrolidine-1-carboxylate]	8.53	16	–	–
CC1=NO[C@@]2(CC[C@H](C)N3C[C@H]2n2cc(C(=O)NCc4ccc(F)cc4F)c(=O)c(OCOC(=O)OC[C@@H]4CCCC[C@@H]4OP(=O)(O)O)c2C3=O)C1 [Compound 52, (((3′S,5S,7′R)-10′-((2,4-difluorobenzyl)carbamoyl)-3,3′-dimethyl-1′,11′-dioxo-1′,4′,5′,11′-tetrahydro-3′H,4H,7′H-spiro[isoxazole-5,6′-[2,7]methanopyrido[1,2-a][1,4]diazonin]-12′-yl)oxy)methyl (((1S,2S)-2-(phosphonooxy)cyclohexyl)methyl) carbonate]	8.83	13	–	–
CCCCCCCCCCCCCC(=O)NCc1ccccc1C(=O)Oc1c2n(cc(C(=O)NCc3ccc(F)cc3F)c1=O)[C@@H]1CN(C2=O)[C@@H](C)CC[C@]12CC(C)=NO2 [Compound 102, (3′S,5S,7′R)-10′-((2,4-difluorobenzyl)carbamoyl)-3,3′-dimethyl-1′,11′-dioxo-1′,4′,5′,11′-tetrahydro-3′H,4H,7′H-spiro[isoxazole-5,6′-[2,7]methanopyrido[1,2-a][1,4]diazonin]-12′-yl 2-(tetradecanamidomethyl)benzoate]	–	31.8	–	–
CC1=NO[C@@]2(CC[C@H](C)N3C[C@H]2n2cc(C(=O)NCc4ccc(F)cc4F)c(=O)c(OCOC(=O)O[C@H]4CCCCC[C@@H]4OP(=O)(O)O)c2C3=O)C1 [Compound 77, (((3′S,5S,7′R)-10′-((2,4-difluorobenzyl)carbamoyl)-3,3′-dimethyl-1′,11′-dioxo-1′,4′,5′,11′-tetrahydro-3′H,4H,7′H-spiro[isoxazole-5,6′-[2,7]methanopyrido[1,2-a][1,4]diazonin]-12′-yl)oxy)methyl ((1S,2S)-2-(phosphonooxy)cycloheptyl) carbonate]	8.69	19.4	–	–
CC1=NO[C@@]2(CC[C@H](C)N3C[C@H]2n2cc(C(=O)NCc4ccc(F)cc4F)c(=O)c(OCOC(=O)N(C)c4ncccc4CN(CC(=O)N[C@@H](CC(=O)O)C(=O)O)C(=O)OCOP(=O)(O)O)c2C3=O)C1 [Compound 36, N-((2-((((((3′S,5S,7′R)-10′-((2,4-difluorobenzyl)carbamoyl)-3,3′-dimethyl-1′,11′-dioxo-1′,4′,5′,11′-tetrahydro-3′H,4H,7′H-spiro[isoxazole-5,6′-[2,7]methanopyrido[1,2-a][1,4]diazonin]-12′-yl)oxy)methoxy)carbonyl)(methyl)amino)pyridin-3-yl)methyl)-N-(((phosphonooxy)methoxy)carbonyl)glycyl-L-aspartic acid]	8.51	22	–	–
COC1=NO[C@@]2(CC[C@H](C)N3C[C@H]2n2cc(C(=O)NCc4ccc(F)cc4F)c(=O)c(OCOP(=O)(O)OCc4ccccc4)c2C3=O)C1 [Compound 18, benzyl ((((3′S,5S,7′R)-10′-((2,4-difluorobenzyl)carbamoyl)-3-methoxy-3′-methyl-1′,11′-dioxo-1′,4′,5′,11′-tetrahydro-3′H,4H,7′H-spiro[isoxazole-5,6′-[2,7]methanopyrido[1,2-a][1,4]diazonin]-12′-yl)oxy)methyl) hydrogen phosphate]	7.91	≥ 50	–	–
CC1=NO[C@@]2(CC[C@H](C)N3C[C@H]2n2cc(C(=O)NCc4ccc(F)cc4F)c(=O)c(OCOC(=O)O[C@@H]4CCCC[C@@H]4OP(=O)(O)O)c2C3=O)C1 [Compound 50, (((3′S,5S,7′R)-10′-((2,4-difluorobenzyl)carbamoyl)-3,3′-dimethyl-1′,11′-dioxo-1′,4′,5′,11′-tetrahydro-3′H,4H,7′H-spiro[isoxazole-5,6′-[2,7]methanopyrido[1,2-a][1,4]diazonin]-12′-yl)oxy)methyl ((1R,2S)-2-(phosphonooxy)cyclohexyl) carbonate]	8.77	21.6	–	–
COC1=NO[C@@]2(CC[C@H](C)N3C[C@H]2n2cc(C(=O)NCc4ccc(F)cc4F)c(=O)c(OCOC(=O)CC(C)(C)c4c(CC(=O)O)cc(C)cc4OP(=O)(O)O)c2C3=O)C1 [Compound 21, 2-(2-(4-((((3′S,5S,7′R)-10′-((2,4-difluorobenzyl)carbamoyl)-3-methoxy-3′-methyl-1′,11′-dioxo-1′,4′,5′,11′-tetrahydro-3′H,4H,7′H-spiro[isoxazole-5,6′-[2,7]methanopyrido[1,2-a][1,4]diazonin]-12′-yl)oxy)methoxy)-2-methyl-4-oxobutan-2-yl)-5-methyl-3-(phosphonooxy)phenyl)acetic acid]	–	–	2.54	12.6
COC1=NO[C@@]2(CC[C@H](C)N3C[C@H]2n2cc(C(=O)NCc4ccc(F)cc4F)c(=O)c(OC(=O)Cc4ccc(OP(=O)(O)O)cc4)c2C3=O)C1 [Compound 29, (3′S,5S,7′R)-10′-((2,4-difluorobenzyl)carbamoyl)-3-methoxy-3′-methyl-1′,11′-dioxo-1′,4′,5′,11′-tetrahydro-3′H,4H,7′H-spiro[isoxazole-5,6′-[2,7]methanopyrido[1,2-a][1,4]diazonin]-12′-yl 2-(4-(phosphonooxy)phenyl)acetate]	–	–	2.01	27.8
CC1=NO[C@@]2(CC[C@H](C)N3C[C@H]2n2cc(C(=O)NCc4ccc(F)cc4F)c(=O)c(OCOC(=O)CC(C)(C)c4c(CC(=O)N[C@@H](CCC(=O)O)C(=O)O)cc(C)cc4OP(=O)(O)O)c2C3=O)C1 [Compound 42, (2-(2-(4-((((3′S,5S,7′R)-10′-((2,4-difluorobenzyl)carbamoyl)-3,3′-dimethyl-1′,11′-dioxo-1′,4′,5′,11′-tetrahydro-3′H,4H,7′H-spiro[isoxazole-5,6′-[2,7]methanopyrido[1,2-a][1,4]diazonin]-12′-yl)oxy)methoxy)-2-methyl-4-oxobutan-2-yl)-5-methyl-3-(phosphonooxy)phenyl)acetyl)-L-glutamic acid]	–	–	1.9	15.7
CC1=NO[C@@]2(CC[C@H](C)N3C[C@H]2n2cc(C(=O)NCc4ccc(F)cc4F)c(=O)c(OCOC(=O)N(C)c4ncccc4CN(CC(=O)N[C@@H](CCC(=O)O)C(=O)O)C(=O)OCOP(=O)(O)O)c2C3=O)C1 [Compound 60, N-((2-((((((3′S,5S,7′R)-10′-((2,4-difluorobenzyl)carbamoyl)-3,3′-dimethyl-1′,11′-dioxo-1′,4′,5′,11′-tetrahydro-3′H,4H,7′H-spiro[isoxazole-5,6′-[2,7]methanopyrido[1,2-a][1,4]diazonin]-12′-yl)oxy)methoxy)carbonyl)(methyl)amino)pyridin-3-yl)methyl)-N-(((phosphonooxy)methoxy)carbonyl)glycyl-L-glutamic acid]	–	–	1.59	13.8
CCCCCCCCCCCCCC(=O)OCc1ccccc1C(=O)Oc1c2n(cc(C(=O)NCc3ccc(F)cc3F)c1=O)[C@@H]1CN(C2=O)[C@@H](C)CC[C@]12CC(OC)=NO2 [Compound 91, (3′S,5S,7′R)-10′-((2,4-difluorobenzyl)carbamoyl)-3-methoxy-3′-methyl-1′,11′-dioxo-1′,4′,5′,11′-tetrahydro-3′H,4H,7′H-spiro[isoxazole-5,6′-[2,7]methanopyrido[1,2-a][1,4]diazonin]-12′-yl 2-((tetradecanoyloxy)methyl)benzoate]	8.30	≥ 50	–	–
CCCCCCCCCCCCCC(=O)NCc1ccccc1C(=O)Oc1c2n(cc(C(=O)NCc3ccc(F)cc3F)c1=O)[C@@H]1CN(C2=O)[C@@H](C)CC[C@]12CC(OC)=NO2 [Compound 101, (3′S,5S,7′R)-10′-((2,4-difluorobenzyl)carbamoyl)-3-methoxy-3′-methyl-1′,11′-dioxo-1′,4′,5′,11′-tetrahydro-3′H,4H,7′H-spiro[isoxazole-5,6′-[2,7]methanopyrido[1,2-a][1,4]diazonin]-12′-yl 2-(tetradecanamidomethyl)benzoate]	–	≥ 50	–	–

Reference: US20250127801A1, “BRIDGED TRICYCLIC CARBAMOYLPYRIDONE COMPOUNDS AND USES THEREOF” (priority 2023, published 2025)
